How the values were obtained:
HBV = assay: In vitro antiviral assay for HBV (Table 1); type: cell-based, Hepatitis B virus; settings: Hepatitis B virus, read-out: Antiviral Activities (EC50, μM) HBV
HSV-1 = assay: In vitro antiviral assay for HSV-1; type: cell-based, Herpes Simplex Virus 1; settings: Human alphaherpesvirus 1, read-out: Antiviral Activities (EC50, μM) HSV-1
In short: (§1)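 Performed according to previously reported procedures for each virus; no further conditions are given for the HSV-2, CMV, HIV or EBV assays.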

EBV = assay: In vitro antiviral assay for EBV; type: cell-based, Epstein-Barr Virus; settings: human gammaherpesvirus 4, read-out: Antiviral Activities (EC50, μM) EBV
In short: as §1

HIV = assay: In vitro antiviral assay for HIV; type: cell-based, human immunodeficiency virus; settings: Human immunodeficiency virus 1, read-out: Antiviral Activities (EC50, μM) HIV, in vitro; (T) after a value means toxic
In short: as §1

CEM cells = assay: Cell cytotoxicity assay on CEM cells; type: cell-based; settings: Homo sapiens, CCRF-CEM, concentration that inhibited 50% of cell growth, read-out: IC50 (μM) CEM
In short: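 MT-2 and CEM cytotoxicity determined per previously reported procedures. HepG2 cells seeded at 10^4 cells/ml in MEME + 10% FBS, compound added on day 2 for 3 further days at 37° C. Viable layer stained with methylene blue, solubilized in 1% sarcosyl, A595 read.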

wt (ayw) HBV = assay: HBV DNA inhibition in HepG2.2.15 cells, Southern blot hybridization; type: cell-based; settings: Hepatitis B virus, HepG2.2.15, 144 h, read-out: EC50 (μM) wt (ayw), HepG2.2.15 cells, 6-day treatment, HBV DNA by Southern blot
Procedure: Southern blot hybridization was used to measure the effects of compounds on HBV DNA. Total DNA from cells was extracted using Dneasy Tissue kit (Qiagen Inc. Valencia, Calif.) and separated on a 0.8% agarose gel. Separated DNA was transferred to a Hybond-N+membrane (Amersham Pharmacia Biotech Inc. Piscataway, N.J.). Inhibition of viral DNA replication was assessed by comparison of the replicative HBV DNA from drug-treated versus untreated cultures using hybridization of the membrane with a [α-^32P] dCTP labeled whole HBV DNA probe followed by autoradiography. Quantitative densitometry was performed on a Molecular Dynamics Densitometer (Amersham Pharmacia Biotech Inc. Piscataway, N.J.) using ImageQuaNT image analysis software. The integrated HBV genome was used as the internal control to normalize the amount of DNA loaded. Northern blot hybridization was used to measure the effects of the compounds on HBV RNA. Total intracellular RNA was extracted from cells using Rneasy kit (Qiagen Inc. Valencia, Calif.). RNA was separated in a 1.2% formaldehyde agarose gel and transferred to a Hybond-N+ membrane (Amersham Pharmacia Biotech Inc. Piscataway, N.J.). The membrane was hybridized with the same probe mentioned above at 65° C. followed by autoradiography. GAPDH RNA level was used as an internal control to normalize the amount of RNA loaded. The decrease of HBV core protein expression was assessed by western blot. A cellular crude extract of […] cells was separated on a 12% SDS-PAGE gel and transferred onto a nitrocellulose membrane (Bio-rad Laboratories, Hercules, Calif.). Anti-HBV core antibody (DAKO Corp. Carpinteria, Calif.) and anti rabbit IgG secondary antibody (Sigma. St. Louis, Mo.) were added. Actin protein level was used as the internal control.
Hep.G2.2.15 is a hepatoblastoma cell line stably transfected with a HBV genome (ayw strain) (Sells et al., 1987, Proc Natl Acad Sci USA. 84 (4):1005-1009). […]
The effect of helioxanthin and 22 on HBV DNA in HepG2.2.15 cells, which is stably transfected with the HBV genome, was assessed. […]

HepG2 cells = assay: Cell cytotoxicity assay on HepG2 cells, methylene blue staining; type: cell-based; settings: Homo sapiens, 72 h, concentration that inhibited 50% of cell growth, 3 days
Procedure: Cytotoxicities of test compounds on MT-2 (Mellors et al., 1992 Mol. Pharmacol. 41:446-451) and CEM (Grove et al., 1995, Cancer Res. 55:3008-3011) cells were determined according to the previously reported procedures. Hepg2 cells were seeded at a density of 10^4 cells/ml/well in 24-well plates and cultured in MEME supplemented with 10% FBS at 37° C. and 5% CO2. Each test compound at different concentrations was added on the second day of the culture and the cells were incubated for another 3 days. At the end of the incubation period, the medium was removed and 0.5 ml of 0.5% methylene blue in 50% ethanol (v/v) was added to each well and set at room temperature for 30-60 minutes. The methylene blue was removed; the plates were washed with water and allowed to air dry. Once dry, 1% sarcosyl was added to dissolve the stained cell layer. The absorbance at 595 nm was measured with a microplate reader (Molecular Devices Corp. Sunnyvale, Calif.). The cytotoxicity to CEM cell was calculated as described previously (Grove et al., 1995, Cancer Res. 55 (14): 3008-3011).

| Compound | EC50 (HBV) [µM] | EC50 (HSV-1) [µM] | EC50 (EBV) [µM] | EC50 (HIV) [µM] | IC50 (CEM cells) [µM] | EC50 (wt (ayw) HBV) [µM] | IC50 (HepG2 cells) [µM] |
| --- | --- | --- | --- | --- | --- | --- | --- |
| O=C1OCc2c1cc1ccc3c(c1c2-c1ccc2c(c1)OCO2)OCO3 [Compound 2, 10-Benzo[1,3]dioxol-5-yl-9H-furo[3′,4′:6,7]naphtho[1,2-d][1,3]dioxol-7-one, reference compound] | 1 | 2 | > 20 | > 2.5 | 32 | ~1 | 6 |
| Nc1ccn([C@@H]2CS[C@H](CO)O2)c(=O)n1 [Compound 3TC, (−)-(2R,5S)-1-[2-(hydroxymethyl)oxathiolan-5-yl]cytosine] | 0.02 |  | 0.4 |  | > 100 | 0.05 ± 0.03 | > 100 |
| COc1ccc(-c2c3c(cc4ccc5c(c24)OCO5)C(=O)NC3)cc1OC [Compound 22, 10-(3,4-Dimethoxy-phenyl)-8,9-dihydro-1,3-dioxa-8-aza-dicyclopenta[a,g]naphthalen-7-one] | 0.9 | 0.6 | > 20 | > 16 | 3.6 ± 1.2 | ~0.08 | 2 |
